Where no end group is shown, it is not given here.
Assays:
β-MIN6 cells = assay: Insulin secretion of β-MIN6 cells following glucose induction; format: cell-based, mouse; conditions: 1 week treatment; IGF-2 5 nM, 20 nM, 80 nM
Excerpt: β-MIN6 cells serve as an in vitro model of mouse pancreatic islets. β-MIN6 cells were used as an in vitro model to measure the effects of treatment with IGF-2.

STZ-treated mouse islets [1] = assay: MTT viability of STZ-treated mouse islets; format: cell-based; conditions: increasing concentrations
Excerpt: Yellow dye MTT is converted to a purple dye by mitochondrial reductase in viable cells. Therefore, the amount of purple dye present determined by measuring optical density of cells at 570 nm serves as a measurement of cell viability.

STZ-treated mouse islets [2] = assay: Insulin secretion from STZ-treated mouse islets; format: cell-based; conditions: islets treated with 2.5 mM STZ; 48 hours after treatment; IGF-2 50 nM and 500 nM, GLP-1 100 nM and 1000 nM
Procedure: Mouse islet cells were treated with 2.5 mM STZ and subsequently treated with either IGF-2 (FA) at 50 nM and 500 nM, or with GLP-1 at 100 nM and 1000 nM.

mice = assay: Blood glucose concentration kinetics of IGF-2 vs. insulin in a glucose tolerance test; format: in vivo, mouse; conditions: insulin 1 unit per kg, IGF-2 800 μg/kg
Excerpt: IGF-2 therefore provides an effect that mimics insulin within the body, and that effect is referred to herein as an “insulinomimetic” effect. […] In this example, administering IGF-2 can provide better results than administering insulin with respect to blood glucose levels, even when only a single dose was used. Without being bound by this theory, it is possible that the IGF-2 combines with a number of binding proteins in the blood and its active free form is then released slowly from the complex.

Substance	insulin secretion following glucose induction (β-MIN6 cells)	mouse islet viability (MTT, optical density at 570 nm) (STZ-treated mouse islets [1])	insulin secretion (STZ-treated mouse islets [2])	glucose level after administration (mice; glucose tolerance test in mice)	time after which the recovery in glucose levels began (mice; single dose)
GLP-1 (HAEGTFTSDVSSYLEGQAAKEFIAWLVKGR; ends and bridges not checked; UniProt P01275 98-127, looked up) [a satiety hormone, comparator in vitro, reference compound]	does not increase insulin secretion	did not significantly increase mouse islet viability	did not significantly increase insulin secretion		
insulin [reference compound]				the glucose level decreased	after two hours

Source: patent US12447198B2, “Peptides and fragments for treating diabetes and associated metabolic diseases” (Betavive Ltd., priority 2021, dated 2025)
